In the oligonucleotide strings, read from the 5' end, every base follows the letter of its sugar. An asterisk marks phosphorothioate; unmarked linkages are phosphodiester. Other units and linkages are bracketed, terminal groups are in braces. A string of capitals states the bases alone. e = 2'-O-(2-methoxyethyl) (MOE); [5mC] = 5-methylcytosine; d = 2'-deoxy (DNA)
What was measured:
mir-15a pri-miRNA = mir-15a pri-miRNA expression in HepG2 cells (real-time RT-PCR); format: cell-based, human; settings: for Expression of mir-15a pri-miRNA (% UTC): HepG2 cells, 100 nM, real-time RT-PCR
Procedure: Using the real-time RT-PCR methods described in Example 19, the expression levels of the mir-15a pri-miRNA were compared in HepG2 cells treated with a nested series of chimeric gapmer oligomeric compounds, targeting and spanning the entire length of the mir-15a pri-miRNA; these compounds are shown in Table 45, below. […] All cytidine residues are 5-methylcytidines. Using the transfection methods described herein, HepG2 cells were treated with 100 nM of each of these gapmer oligomeric compounds. Total RNA was isolated from HepG2 cells by lysing cells in 1 mL TRIZOL™ (Invitrogen) using the manufacturer's recommended protocols. Real-time RT-PCR analysis was performed using a primer/probe set specific for the mir-15a pri-miRNA molecule to assess the effects of these compounds on expression of the mir-15a pri-miRNA molecule. ISIS 339317 ([…]; SEQ ID NO.: 885) was used as the forward primer, ISIS 339318 (TGGCCTGCACCTTTTCAAA; SEQ ID NO.: 886) was used as the reverse primer, and ISIS 339319 ([…]; SEQ ID NO.: 887) was used as the probe. Total RNA was quantified using RiboGreen™ RNA quantification reagent (Molecular Probes, Inc. Eugene, Oreg.), expression levels observed for each target are normalized to 5.8S rRNA, and values are expressed relative to the untreated control. Inhibition of expression of the mir15a pri-miRNA by these gapmer oligomeric compounds is expressed as a percentage of RNA levels in untreated control cells.

HeLa cells = test: Cell cycle assay in HeLa cells; format: cell-based, human; settings: HeLa cells
BJ cells = test: Cell cycle assay in BJ cells; format: cell-based, human; settings: 200 nM, 48 hours, relative to untreated control
Procedure: (§1) BJ cells were routinely cultured in MEM high glucose with 2 mM L-glutamine and Earle's BSS adjusted to contain 1.5 g/L sodium bicarbonate and supplemented with 10% fetal bovine serum, 0.1 mM non-essential amino acids and 1.0 mM sodium pyruvate (all media and supplements from Invitrogen Life Technologies, Carlsbad, Calif.). B16-F10 cells were routinely cultured in DMEM high glucose (Invitrogen Life Technologies, Carlsbad, Calif.) supplemented with 10% fetal bovine serum (Invitrogen Life Technologies, Carlsbad, Calif.). T47D cells were cultured in DMEM High glucose media (Invitrogen Life Technologies, Carlsbad, Calif.) supplemented with 10% fetal bovine serum. […] Cells were plated on collagen-coated 24-well plates (Falcon-Primaria #3047, BD Biosciences, Bedford, Mass.) at approximately 50,000 cells per well and allowed to attach to wells overnight.
(§2) In further studies, additional cell lines were treated with oligomeric compounds targeted against miRNAs to assess the effects of each oligomeric compound on cell cycling. BJ, B16, T47D, and HeLa cells were cultured and transfected as described above. […] T47Dp53 cells are T47D cells that have been transfected with and selected for maintenance of a plasmid that expresses a wildtype copy of the p53 gene (for example, pCMV-p53; Clontech, Palo Alto, Calif.), using standard laboratory procedures. BJ cells were treated with 200 nM of each oligomeric compound, and T47D, T47Dp53, HeLa, and B16 cells were treated with 150 nM of each oligomeric compound. The human foreskin fibroblast BJ cell line represents a non-cancer cell line, while HeLa, T47D, T47Dp53 cells and the mouse melanoma cell line B16-F10 represent cancerous cell lines. For comparison, oligomeric compounds ISIS 183891 (SEQ ID NO: 847) and ISIS 285717 ([…]; herein incorporated as SEQ ID NO: 857), both targeting the kinesin-like 1/Eg5 mRNA, involved in cell cycling, were used as positive controls. The random-mer ISIS 29848 was used as a negative control. Additionally, the oligomeric compounds ISIS Number 25690 ([…]; herein incorporated as SEQ ID NO: 858) and ISIS Number 25691 ([…]; herein incorporated as SEQ ID NO: 859), targeted to nucleotides 3051-3070 and 3085-3104, respectively, of the mRNA encoding the Drosha RNase III (GenBank Accession NM_013235.2, incorporated herein as SEQ ID NO: 860) were also tested. ISIS Number 25690 and ISIS Number 25691 are 5-10-52′-MOE gapmer compounds, 20 nucleotides in length, with phosphorothioate internucleoside linkages throughout the oligomeric compound. All cytidine residues are 5-methylcytidines. Transfections were performed using the methods described herein. Cells were prepared for flow cytometry 48-hours after oligonucleotide treatment. Results of these studies are shown in Table 35, where data are expressed as percentage of cells in each phase relative to the untreated control cells in that phase.

B16-F10 cells = test: Cell cycle assay in B16-F10 cells; format: cell-based, mouse; settings: 150 nM, 48 hours, relative to untreated control
Procedure: as §1, §2

[1] = 150 nM oligomeric compound, 24 hours, relative to untreated control (UTC = 100)
[2] = 150 nM oligomeric compound, 48 hours after treatment, relative to untreated control (UTC=100)
[3] = 150 nM, 48 hours, relative to untreated control

Question: “347978 (eT*e[5mC]*e[5mC]*eT*eT*dG*dT*dA*dT*dT*dT*dT*dT*dG*dA*eG*eG*e[5mC]*eA*eG; antisense) [compound 347978]” was tested. Which “Expression of mir-15a pri-miRNA (% UTC)” value (mir-15a pri-miRNA) did it give?
Answer: 51.1 % UTC

Question: Which “Expression of mir-15a pri-miRNA (% UTC)” value (mir-15a pri-miRNA) does the source give for “347971 (eA*e[5mC]*eA*eA*eT*dA*dT*dG*dG*d[5mC]*d[5mC]*dT*dG*d[5mC]*dA*e[5mC]*e[5mC]*eT*eT*eT; antisense) [compound 347971]” here?
Answer: 92.8 % UTC

Question: How did the “expression of the mir-15a pri-miRNA molecule” value (mir-15a pri-miRNA; HepG2, 100 nM) turn out when “ISIS 347968: 5-10-5 2′-MOE gapmer PS; targets mir-15a pri-miRNA (antisense e[5mC]*e[5mC]*eT*eG*e[5mC]*dA*d[5mC]*d[5mC]*dT*dT*dT*dT*d[5mC]*dA*dA*eA*eA*eT*e[5mC]*e[5mC])” was run?
Answer: significant inhibition of expression of the mir-15a pri-miRNA molecule

Question: With “347976 (eT*eA*eT*eT*eT*dT*dT*dG*dA*dG*dG*d[5mC]*dA*dG*d[5mC]*eA*e[5mC]*eA*eA*eT; antisense) [compound 347976]” as the substance, how does the “Expression of mir-15a pri-miRNA (% UTC)” value (mir-15a pri-miRNA) read?
Answer: 73.0 % UTC

Question: For “345395 (AAGGGATTCCTGGGAAAACTGGAC; sugars from the 5' end e5 d10 e9, all phosphorothioate, methylation of C not given here) [compound 345395]”, which “% cells aneuploid” value (HeLa cells; [1]) is on record?
Answer: 77%

Question: What about the “% cells in cell cycle phase G1” value (HeLa cells; [1]) of the same substance?
Answer: 54%

Question: What about the “% cells in cell cycle phase G2/M” value (HeLa cells; [1]) of the same substance?
Answer: 222%

Question: And the “% cells in cell cycle phase S” value (HeLa cells; [1])?
Answer: 82%

Question: And the “% cells in cell cycle phase subG1” value (HeLa cells; [1])?
Answer: 247%

Question: And the “% cells in cell cycle phase: G1” value (HeLa cells; [2])?
Answer: 51%

Question: And the “% cells in cell cycle phase: G2/M” value (HeLa cells; [2])?
Answer: 157%

Question: What about the “% cells in cell cycle phase: S” value (HeLa cells; [2]) of the same substance?
Answer: 192%

Question: And the “% cells in cell cycle phase: aneuploid” value (HeLa cells; [2])?
Answer: 87%

Question: And the “% cells in cell cycle phase: subG1” value (HeLa cells; [2])?
Answer: 213%

Question: What about the “% cells in cell cycle phase G1” value (HeLa cells; [3]) of the same substance?
Answer: 108%

Question: And the “% cells in cell cycle phase G2/M” value (HeLa cells; [3])?
Answer: 95%

Question: And the “% cells in cell cycle phase S” value (HeLa cells; [3])?
Answer: 96%

Question: What about the “% cells in cell cycle phase aneuploid” value (HeLa cells; [3]) of the same substance?
Answer: 139%

Question: And the “% cells in cell cycle phase subG1” value (HeLa cells; [3])?
Answer: 87%

Question: What about the “% cells in cell cycle phase G1” value (BJ cells) of the same substance?
Answer: 100%

Question: What about the “% cells in cell cycle phase G2/M” value (BJ cells) of the same substance?
Answer: 104%

Question: What about the “% cells in cell cycle phase S” value (BJ cells) of the same substance?
Answer: 97%

Question: What about the “% cells in cell cycle phase aneuploid” value (BJ cells) of the same substance?
Answer: 115%

Question: What about the “% cells in cell cycle phase subG1” value (BJ cells) of the same substance?
Answer: 132%

Question: What about the “% cells in cell cycle phase G1” value (B16-F10 cells) of the same substance?
Answer: 106%

Question: What about the “% cells in cell cycle phase G2/M” value (B16-F10 cells) of the same substance?
Answer: 115%

Question: And the “% cells in cell cycle phase S” value (B16-F10 cells)?
Answer: 87%

Question: What about the “% cells in cell cycle phase aneuploid” value (B16-F10 cells) of the same substance?
Answer: 150%

Question: And the “% cells in cell cycle phase subG1” value (B16-F10 cells)?
Answer: 147%

Question: How did the “Expression of mir-15a pri-miRNA (% UTC)” value (mir-15a pri-miRNA) turn out when “347967 (eG*e[5mC]*eA*e[5mC]*e[5mC]*dT*dT*dT*dT*d[5mC]*dA*dA*dA*dA*dT*e[5mC]*e[5mC]*eA*e[5mC]*eA) [compound 347967]” was run?
Answer: 152.3 % UTC

From patent US8178506B2, “Oligomeric compounds and compositions for use in modulation of small non-coding RNAs” (Regulus Therapeutics Inc., priority 2003, dated 2012)
